In ChEMBL document CHEMBL1201862, “PubChem BioAssay data set” (2004):
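1) Cells in 96-well plates. 2) Compound, 48 h, 5 concentrations. 3) Linear interpolation between surrounding doses. 4) Unreached endpoint = highest concentration. GI50: concentration for 50% inhibition of growth.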 The source made the active and inactive calls. No stated cut-off is given here; in the data, active = GI50 up to about 1.1 µM and inactive = higher.

Assays:
Assay in all cases: NCI anticancer screen, dose series, 48 h
A549 = tested on: A549
ACHN = tested on: ACHN
CAKI-1 = tested on: CAKI-1
CCRF-CEM = tested on: CCRF-CEM
DLD-1 = tested on: DLD-1
EKVX = tested on: EKVX
HL-60 = tested on: HL-60
Hs-578T = tested on: Hs-578T
MDA-MB-435 = tested on: MDA-MB-435
NCI/ADR-RES = tested on: NCI/ADR-RES
OVCAR-3 = tested on: OVCAR-3
OVCAR-5 = tested on: OVCAR-5
OVCAR-8 = tested on: OVCAR-8
SF-268 = tested on: SF-268
SK-MEL-2 = tested on: SK-MEL-2
SNB-19 = tested on: SNB-19
SR = tested on: SR
SW-620 = tested on: SW-620
UACC-257 = tested on: UACC-257
UO-31 = tested on: UO-31

Compound: O=c1[nH]c2ccccc2nc1CBr
- GI50 (A549): 14.4 µM (inactive)
- GI50 (ACHN): 12.3 µM (inactive)
- GI50 (CAKI-1): 7.33 µM (inactive)
- GI50 (CCRF-CEM): 0.399 µM (active)
- GI50 (DLD-1): 8.87 µM (inactive)
- GI50 (EKVX): 3.3 µM (inactive)
- GI50 (HL-60): 0.213 µM (active)
- GI50 (Hs-578T): 12.1 µM (inactive)
- GI50 (MDA-MB-435): 12.3 µM (inactive)
- GI50 (NCI/ADR-RES): 19.7 µM (inactive)
- GI50 (OVCAR-3): 1.57 µM (inactive)
- GI50 (OVCAR-5): 17.7 µM (inactive)
- GI50 (OVCAR-8): 13.8 µM (inactive)
- GI50 (SF-268): 11.1 µM (inactive)
- GI50 (SK-MEL-2): 8.24 µM (inactive)
- GI50 (SNB-19): 23.5 µM (inactive)
- GI50 (SR): 0.415 µM (active)
- GI50 (SW-620): 4.19 µM (inactive)
- GI50 (UACC-257): 13.2 µM (inactive)
- GI50 (UO-31): 3.87 µM (inactive)
